Assay results reported in ChEMBL document CHEMBL2074393, “Impact of Mrp2 on the biliary excretion and intestinal absorption of furosemide, probenecid, and methotrexate using Eisai hyperbilirubinemic rats” (Pharm Res, 2003).

Assays:
[1] = target: T1, ATP-binding cassette sub-family C member 2 (Rattus norvegicus, UniProt Q63120); test: TP_TRANSPORTER: In vivo biliary excretion of SDR rat; assay type: functional, organism-based, Sprague-Dawley, Bile
[2] = target: T1, ATP-binding cassette sub-family C member 2; test: TP_TRANSPORTER: In vivo biliary excretion in vivo, biliary excretion of SDR and EHBR rat; assay type: functional, organism-based, Bile

T1 sequence (Q63120 whole entry): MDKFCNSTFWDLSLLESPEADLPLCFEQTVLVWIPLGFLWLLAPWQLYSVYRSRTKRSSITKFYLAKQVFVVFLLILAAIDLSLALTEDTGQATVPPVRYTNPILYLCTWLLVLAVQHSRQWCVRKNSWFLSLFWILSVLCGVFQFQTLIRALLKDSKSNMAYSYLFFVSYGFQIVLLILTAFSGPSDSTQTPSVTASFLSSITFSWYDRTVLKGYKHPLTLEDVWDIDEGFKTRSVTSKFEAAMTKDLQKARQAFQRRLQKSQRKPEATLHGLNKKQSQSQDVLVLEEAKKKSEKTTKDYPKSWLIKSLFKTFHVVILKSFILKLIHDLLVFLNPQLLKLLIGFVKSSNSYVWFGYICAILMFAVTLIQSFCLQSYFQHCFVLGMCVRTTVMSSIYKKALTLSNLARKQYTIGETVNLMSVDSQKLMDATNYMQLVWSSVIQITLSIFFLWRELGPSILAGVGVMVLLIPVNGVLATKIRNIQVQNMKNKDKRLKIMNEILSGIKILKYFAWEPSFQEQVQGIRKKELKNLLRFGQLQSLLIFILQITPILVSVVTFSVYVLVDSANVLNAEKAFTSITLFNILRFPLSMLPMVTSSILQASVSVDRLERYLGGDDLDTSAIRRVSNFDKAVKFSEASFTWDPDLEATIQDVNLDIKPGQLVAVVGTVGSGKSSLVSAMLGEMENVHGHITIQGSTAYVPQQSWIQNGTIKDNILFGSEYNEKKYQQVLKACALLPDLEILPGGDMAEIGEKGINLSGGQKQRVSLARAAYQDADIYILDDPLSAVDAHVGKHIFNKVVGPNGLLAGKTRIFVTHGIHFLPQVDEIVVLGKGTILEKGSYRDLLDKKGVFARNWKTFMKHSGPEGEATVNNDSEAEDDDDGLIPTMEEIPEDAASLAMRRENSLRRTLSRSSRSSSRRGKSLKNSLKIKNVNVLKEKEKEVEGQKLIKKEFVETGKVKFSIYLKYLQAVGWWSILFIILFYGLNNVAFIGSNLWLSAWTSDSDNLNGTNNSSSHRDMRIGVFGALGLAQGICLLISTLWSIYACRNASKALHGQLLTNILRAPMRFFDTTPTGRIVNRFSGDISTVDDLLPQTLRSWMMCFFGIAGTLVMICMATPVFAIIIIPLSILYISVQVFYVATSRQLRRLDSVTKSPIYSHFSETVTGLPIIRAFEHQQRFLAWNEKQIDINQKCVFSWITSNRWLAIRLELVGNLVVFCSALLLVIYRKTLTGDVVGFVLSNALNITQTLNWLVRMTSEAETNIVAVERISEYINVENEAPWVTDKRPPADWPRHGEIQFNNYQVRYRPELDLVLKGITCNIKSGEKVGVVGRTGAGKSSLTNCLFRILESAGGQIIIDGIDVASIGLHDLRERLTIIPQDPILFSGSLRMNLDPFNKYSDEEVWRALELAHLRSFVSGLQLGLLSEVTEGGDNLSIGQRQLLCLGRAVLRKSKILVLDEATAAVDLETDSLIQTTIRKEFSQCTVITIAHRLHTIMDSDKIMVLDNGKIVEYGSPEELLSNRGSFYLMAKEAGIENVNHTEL

Activity [1] | Activity [2] | SMILES
substrate [] | substrate [] | CN(Cc1cnc2nc(N)nc(N)c2n1)c1ccc(C(=O)N[C@@H](CCC(=O)O)C(=O)O)cc1 [METHOTREXATE]
substrate [] | substrate [] | CCCN(CCC)S(=O)(=O)c1ccc(C(=O)O)cc1 [PROBENECID]
